The supplement of paper PMC8967900

Assays:
Assay in all cases: selective drug sensitivity score (sDSS, relative to normal bone marrow) (sDSS (score)); higher = more potent and effective on the cell line relative to normal bone marrow cells
Settings in all cases: 72 h
697 = tested on: 697
ALL-SIL = tested on: ALL-SIL
CCRF-HSB2 = tested on: CCRF-HSB2
COG-LL-317 = tested on: COG-LL-317
COG-LL-319h = tested on: COG-LL-319h
COG-LL-355h = tested on: COG-LL-355h
COG-LL-394h = tested on: COG-LL-394h
COG-LL-402h = tested on: COG-LL-402h
JURKAT = tested on: JURKAT
KASUMI-2 = tested on: KASUMI-2
KASUMI-9 = tested on: KASUMI-9
MHH-CALL-2 = tested on: MHH-CALL-2
MHH-CALL-3 = tested on: MHH-CALL-3
MOLT-16 = tested on: MOLT-16
NALM-16 = tested on: NALM-16
PEER = tested on: PEER
PF-382 = tested on: PF-382
RCH-ACV = tested on: RCH-ACV
SEM cells = tested on: SEM cells
TANOUE = tested on: TANOUE
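Also: ALL cell lines in 384-well plates, five doses spanning 10,000-fold, each plate scaled between vehicle and 100 µmol/L benzalkonium chloride controls, sDSS an adapted area-under-curve metric.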

Compound: O=C(c1cccc(Cl)c1F)N1CCN(Cc2cccc(Nc3nccs3)n2)CC1 [MK-8745] (top concentration 10000 nM)
- selective drug sensitivity score 697: 8.9
- selective drug sensitivity score (ALL-SIL): 11.8
- selective drug sensitivity score (CCRF-HSB2): 14.1
- selective drug sensitivity score (COG-LL-317): 12.9
- selective drug sensitivity score (COG-LL-319h): 14.3
- selective drug sensitivity score (COG-LL-355h): 2.7
- selective drug sensitivity score (COG-LL-394h): 5
- selective drug sensitivity score (COG-LL-402h): 14.1
- selective drug sensitivity score (JURKAT): 9.8
- selective drug sensitivity score (KASUMI-2): 6.8
- selective drug sensitivity score (KASUMI-9): 13.2
- selective drug sensitivity score (MHH-CALL-2): 12.2
- selective drug sensitivity score (MHH-CALL-3): 7.1
- selective drug sensitivity score (MOLT-16): 12.2
- selective drug sensitivity score (NALM-16): 12.4
- selective drug sensitivity score (PEER): 9.8
- selective drug sensitivity score (PF-382): 8.5
- selective drug sensitivity score (RCH-ACV): 9.7
- selective drug sensitivity score (SEM cells): 18.3
- selective drug sensitivity score (TANOUE): -0.8

Compound: CC(=O)c1cnc2ccc(-c3cc(Cl)c(O)c(Cl)c3)nc2c1N[C@H]1CC[C@H](CN(C)C)CC1 [OTS167] (top concentration 1000 nM)
- selective drug sensitivity score 697: 5.48
- selective drug sensitivity score (ALL-SIL): 2.08
- selective drug sensitivity score (CCRF-HSB2): 13.2
- selective drug sensitivity score (COG-LL-317): 3.58
- selective drug sensitivity score (COG-LL-319h): 6.58
- selective drug sensitivity score (COG-LL-355h): 6.18
- selective drug sensitivity score (COG-LL-394h): 4.08
- selective drug sensitivity score (COG-LL-402h): 7.08
- selective drug sensitivity score (JURKAT): -3.52
- selective drug sensitivity score (KASUMI-2): 4.58
- selective drug sensitivity score (KASUMI-9): 3.58
- selective drug sensitivity score (MHH-CALL-2): 3.18
- selective drug sensitivity score (MHH-CALL-3): -1.02
- selective drug sensitivity score (MOLT-16): 2.78
- selective drug sensitivity score (NALM-16): -4.52
- selective drug sensitivity score (PEER): 1.78
- selective drug sensitivity score (PF-382): -2.62
- selective drug sensitivity score (RCH-ACV): 8.28
- selective drug sensitivity score (SEM cells): 0.58
- selective drug sensitivity score (TANOUE): -12.1

Compound: Nc1cc(F)ccc1NC(=O)/C=C/c1cnn(C/C=C/c2ccccc2)c1 [RGFP966] (top concentration 10000 nM)
- selective drug sensitivity score 697: 13.2
- selective drug sensitivity score (ALL-SIL): 12.4
- selective drug sensitivity score (CCRF-HSB2): 15.9
- selective drug sensitivity score (COG-LL-317): 16.6
- selective drug sensitivity score (COG-LL-319h): 17.5
- selective drug sensitivity score (COG-LL-355h): 4.84
- selective drug sensitivity score (COG-LL-394h): 2.34
- selective drug sensitivity score (COG-LL-402h): 6.84
- selective drug sensitivity score (JURKAT): 11.2
- selective drug sensitivity score (KASUMI-2): 8.24
- selective drug sensitivity score (KASUMI-9): 13.5
- selective drug sensitivity score (MHH-CALL-2): 7.84
- selective drug sensitivity score (MHH-CALL-3): 12.3
- selective drug sensitivity score (MOLT-16): 18.2
- selective drug sensitivity score (NALM-16): 6.24
- selective drug sensitivity score (PEER): 10.2
- selective drug sensitivity score (PF-382): 11.1
- selective drug sensitivity score (RCH-ACV): 14.8
- selective drug sensitivity score (SEM cells): 18.7
- selective drug sensitivity score (TANOUE): -0.26

Compound: Cc1[nH]c2ccccc2c1CCNCc1ccc(/C=C/C(=O)NO)cc1 [Panobinostat] (top concentration 1000 nM)
- selective drug sensitivity score 697: 7.64
- selective drug sensitivity score (ALL-SIL): 6.04
- selective drug sensitivity score (CCRF-HSB2): 5.24
- selective drug sensitivity score (COG-LL-317): 6.34
- selective drug sensitivity score (COG-LL-319h): 14.2
- selective drug sensitivity score (COG-LL-355h): 4.84
- selective drug sensitivity score (COG-LL-394h): 2.84
- selective drug sensitivity score (COG-LL-402h): 14.6
- selective drug sensitivity score (JURKAT): 1.04
- selective drug sensitivity score (KASUMI-2): 14.3
- selective drug sensitivity score (KASUMI-9): 11.7
- selective drug sensitivity score (MHH-CALL-2): 8.44
- selective drug sensitivity score (MHH-CALL-3): 15.6
- selective drug sensitivity score (MOLT-16): 9.04
- selective drug sensitivity score (NALM-16): 2.94
- selective drug sensitivity score (PEER): 4.34
- selective drug sensitivity score (PF-382): 4.34
- selective drug sensitivity score (RCH-ACV): 14.1
- selective drug sensitivity score (SEM cells): 3.94
- selective drug sensitivity score (TANOUE): -6.56

Compound: O=C(CCCCCCC(=O)Nc1ccccc1)NO [Vorinostat] (top concentration 10000 nM)
- selective drug sensitivity score 697: 10.1
- selective drug sensitivity score (ALL-SIL): 7.5
- selective drug sensitivity score (CCRF-HSB2): 4.8
- selective drug sensitivity score (COG-LL-317): 8.2
- selective drug sensitivity score (COG-LL-319h): 11.5
- selective drug sensitivity score (COG-LL-355h): 7.7
- selective drug sensitivity score (COG-LL-394h): 1
- selective drug sensitivity score (COG-LL-402h): 10.2
- selective drug sensitivity score (JURKAT): 3.6
- selective drug sensitivity score (KASUMI-2): 17.6
- selective drug sensitivity score (KASUMI-9): 11.6
- selective drug sensitivity score (MHH-CALL-2): 8.7
- selective drug sensitivity score (MHH-CALL-3): 14.1
- selective drug sensitivity score (MOLT-16): 15.5
- selective drug sensitivity score (NALM-16): 1.5
- selective drug sensitivity score (PEER): 9.7
- selective drug sensitivity score (PF-382): 4.1
- selective drug sensitivity score (RCH-ACV): 16.5
- selective drug sensitivity score (SEM cells): 11.3
- selective drug sensitivity score (TANOUE): -2.6

Compound: Nc1nc2[nH]cnc2c(=S)[nH]1 [Thioguanine] (top concentration 10000 nM)
- selective drug sensitivity score 697: 8.84
- selective drug sensitivity score (ALL-SIL): 12.8
- selective drug sensitivity score (CCRF-HSB2): 14.7
- selective drug sensitivity score (COG-LL-317): 23
- selective drug sensitivity score (COG-LL-319h): 18.6
- selective drug sensitivity score (COG-LL-355h): 4.04
- selective drug sensitivity score (COG-LL-394h): 2.44
- selective drug sensitivity score (COG-LL-402h): 6.34
- selective drug sensitivity score (JURKAT): 12.4
- selective drug sensitivity score (KASUMI-2): 2.54
- selective drug sensitivity score (KASUMI-9): 11.2
- selective drug sensitivity score (MHH-CALL-2): 11.9
- selective drug sensitivity score (MHH-CALL-3): -1.36
- selective drug sensitivity score (MOLT-16): 15.2
- selective drug sensitivity score (NALM-16): 7.74
- selective drug sensitivity score (PEER): 13.1
- selective drug sensitivity score (PF-382): 12
- selective drug sensitivity score (RCH-ACV): 14.3
- selective drug sensitivity score (SEM cells): 13
- selective drug sensitivity score (TANOUE): 5.54

Compound: Cc1ccc(NC(=O)c2ccc(CN3CCN(C)CC3)cc2)cc1Nc1nc(-c2cccnc2)cs1 [Masitinib] (top concentration 10000 nM)
- selective drug sensitivity score 697: 1.32
- selective drug sensitivity score (ALL-SIL): 11.6
- selective drug sensitivity score (CCRF-HSB2): 6.02
- selective drug sensitivity score (COG-LL-317): 3.32
- selective drug sensitivity score (COG-LL-319h): -3.88
- selective drug sensitivity score (COG-LL-355h): -1.78
- selective drug sensitivity score (COG-LL-394h): 3.32
- selective drug sensitivity score (COG-LL-402h): -1.48
- selective drug sensitivity score (JURKAT): 0.92
- selective drug sensitivity score (KASUMI-2): -4.38
- selective drug sensitivity score (KASUMI-9): 1.22
- selective drug sensitivity score (MHH-CALL-2): -1.68
- selective drug sensitivity score (MHH-CALL-3): -4.38
- selective drug sensitivity score (MOLT-16): 3.42
- selective drug sensitivity score (NALM-16): -4.38
- selective drug sensitivity score (PEER): 6.62
- selective drug sensitivity score (PF-382): 1.42
- selective drug sensitivity score (RCH-ACV): 0.02
- selective drug sensitivity score (SEM cells): 0.22
- selective drug sensitivity score (TANOUE): -4.38

Compound: COc1ccc2[nH]cc(/C=C3\C(=O)Nc4ccc(NC(=O)CCN5CCCCC5)cc43)c2c1 (top concentration 50000 nM)
- selective drug sensitivity score 697: -0.02
- selective drug sensitivity score (ALL-SIL): 1.58
- selective drug sensitivity score (CCRF-HSB2): 6.68
- selective drug sensitivity score (COG-LL-317): 2.58
- selective drug sensitivity score (COG-LL-319h): -4.42
- selective drug sensitivity score (COG-LL-355h): 0.28
- selective drug sensitivity score (COG-LL-394h): 0.18
- selective drug sensitivity score (COG-LL-402h): 1.18
- selective drug sensitivity score (JURKAT): -3.22
- selective drug sensitivity score (KASUMI-2): -4.72
- selective drug sensitivity score (KASUMI-9): 1.28
- selective drug sensitivity score (MHH-CALL-2): -2.82
- selective drug sensitivity score (MHH-CALL-3): -5.32
- selective drug sensitivity score (MOLT-16): -2.32
- selective drug sensitivity score (NALM-16): -2.42
- selective drug sensitivity score (PEER): 2.18
- selective drug sensitivity score (PF-382): 1.18
- selective drug sensitivity score (RCH-ACV): 1.08
- selective drug sensitivity score (SEM cells): 2.18
- selective drug sensitivity score (TANOUE): -2.22
